The values below come from PubChem BioAssay (NCI).

Structures are written as SMILES.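 These data come from cells grown in 96-well plates and exposed to compound for 48 hours at five concentrations. Definition used: TGI = concentration required for complete inhibition of growth.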 Where a SMILES comes first, the peptide text is derived from it. [ ]: non-standard residue; d: D form. The star is where a group is joined. X28 = COC1=CC(=O)N(C(=O)[C@@H](O*)C(C)C)[C@H]1Cc1ccccc1; NMeL = CN[C@@H](CC(C)C)C(=O)O; Cbz = O=C(OCc1ccccc1)*

Holding throughout (assay): inhibition of tumour cell growth, NCI panel, 48 h
For experiment [1], the system named is CAKI-1 renal.
The subject of experiment [2] is HCT-15 colon.
The subject of experiment [3] is K-562 leukemia.
The subject of experiment [4] is MDA-MB-435.
The test system of experiment [5] is MOLT-4 leukemia.
Experiment [6] deals with SF-268 CNS.
Experiment [7] deals with SK-MEL-5 melanoma.
Experiment [8] has as its system T-47D breast.
Experiment [9] has as its system U251 CNS.
Experiment [10] concerns A498 renal.

As to `CC(C)(CO)NC(=O)c1cccc(C(=O)NC(C)(C)CO)c1Br`, the TGI in experiment [1], in experiment [2], in experiment [3], in [4], in [5] and in experiment [6] was greater than 100 µM each time. Besides, the TGI in experiment [7], in experiment [8] and in experiment [9] was greater than 100 µM throughout.
As for `O=C(/C=C/c1ccsc1)c1ccc(Cl)s1`, the TGI in experiment [10] is greater than 100 µM; in experiment [1], greater than 100 µM; in experiment [2], greater than 100 µM; in experiment [4], 79.9 µM; in experiment [5], 52 µM; in [6], greater than 100 µM. Further, the TGI in experiment [7], in experiment [8] and in [9] was greater than 100 µM throughout.
Consider `CCCCCCCCCCOC1C(C(C)OCCCN(C)C)OC2OC3(CCCCC3)OC21` (stereo not given), for which the TGI stood at 28 µM in experiment [1]; 17.5 µM in experiment [2]; 12.6 µM in experiment [3]; 30.3 µM in experiment [4]; 30.6 µM in experiment [5]; 30.5 µM in experiment [6]. The TGI came out at 29.5 µM in experiment [7], 35.7 µM in experiment [8] and 28.4 µM in experiment [9].
Take `O=C1CSC(c2c(O)ccc3ccccc23)N1n1c(=S)[nH]nc(/C=C/c2c(O)ccc3ccccc23)c1=O` (stereo not given): the TGI in experiment [10] was 18.4 µM; in experiment [1], 11.4 µM; in [2], 23.2 µM; in [3] it was 19.3 µM; in experiment [4], 14.9 µM; in [5], greater than 100 µM. The TGI in experiment [6] was 40.3 µM; in experiment [8], 15.1 µM; in [9], 16.4 µM.
Turning to `COc1ccc2c(c1)-c1c(c3ccccc3n1CCN1CCOCC1)CC2`, the TGI was 81.9 µM in experiment [1]; greater than 100 µM in experiment [2]; 54.5 µM in experiment [3]; greater than 100 µM in experiment [4]; 37.9 µM in experiment [5]; 76.9 µM in experiment [6]. Besides, the figures for the TGI in [7], in experiment [8] and in experiment [9] were 31.3 µM, greater than 100 µM and 81.8 µM, respectively.
Regarding `CC(=N\N=C\c1ccccn1)/C(C)=N/N=C/c1ccccn1`, the TGI in [10], in experiment [1], in experiment [2], in experiment [4], in experiment [6] and in experiment [7] was greater than 100 µM throughout. The TGI in experiment [8] and in [9] was greater than 100 µM throughout.
As for `COc1cc(C2c3cc4c(cc3OC(N3CCOCC3)C2C)OCO4)cc(OC)c1OC` (stereo not given), the TGI was 23.3 µM in experiment [1]; greater than 40.3 µM in experiment [2]; greater than 54.3 µM in [3]; 0.549 µM in experiment [4]; greater than 38.2 µM in experiment [5]; greater than 100 µM in experiment [6]. The values for the TGI in [7], in experiment [8] and in experiment [9] were 6.78 µM, greater than 100 µM and greater than 20.1 µM, respectively.
As to `Cc1noc(C)c1N=Nc1ccc2nonc2c1N`, the TGI in experiment [1], in [2], in experiment [4], in [5], in experiment [6] and in experiment [7] was greater than 100 µM each time. Besides, the TGI in [8] is greater than 100 µM.
In the case of `COC(=O)C1=C2Nc3ccccc3C23CCN2C(O)C4(CC5CC67CCOC6CCN6CCC8(c9cccc(OC)c9N(C4)C58O)C67)C4OCCC4(C1)C23` (stereo not given), the TGI in [10], in experiment [1], in [2], in [3], in experiment [4] and in experiment [6] was greater than 100 µM throughout. Further, the TGI was greater than 100 µM in experiment [7], 55.7 µM in experiment [8] and greater than 100 µM in experiment [9].
As for `C/C=C/COc1cc(NC(=S)c2ccoc2C)ccc1OC`, the TGI in [10], in experiment [1], in experiment [2], in experiment [4], in experiment [5] and in experiment [6] was greater than 100 µM each time. For the same compound, the TGI in experiment [7], in [8] and in experiment [9] was greater than 100 µM throughout.
On to `COC(=O)C(Cc1ccccc1)NC(=O)C(CCCN=C(N)N)NC(=O)OCc1ccccc1` (stereo not given), for which the TGI in experiment [1], in [2], in experiment [3], in experiment [4], in [5] and in [6] was greater than 100 µM in each case. The TGI in experiment [7], in [8] and in [9] was greater than 100 µM throughout.
`CCCCCCCCCCCCCCCCCCNC(=S)/N=C/c1c(O)cc(C)oc1=O`: the TGI is 64.1 µM in [1]; 62 µM in experiment [2]; 55.6 µM in experiment [4]; greater than 100 µM in experiment [5]; greater than 100 µM in experiment [7]; greater than 100 µM in experiment [8]. This compound also came in with a TGI in experiment [9] greater than 100 µM.
Take `COC1=CC(=O)N(C(=O)[C@@H](OC(=O)[C@@H]2CCCN2C(=O)[C@@H]2CCCN2C(=O)[C@H](CC(C)C)N(C)C(=O)[C@@H](NC(=O)[C@@H](NC(=O)OCc2ccccc2)C(C)C)C(C)C)C(C)C)[C@H]1Cc1ccccc1` (Cbz-VV[NMeL]PP-X28): the TGI in [10] was 56.1 µM; in experiment [1], greater than 100 µM; in experiment [2] it was greater than 100 µM; in [3], greater than 100 µM; in [4], greater than 100 µM; in experiment [6], greater than 100 µM. In addition, the TGI in experiment [8] and in [9] was greater than 100 µM throughout.
As for `CCC(=O)n1c(=O)n(-c2ccc([N+](=O)[O-])cc2)c(=O)n1C(=O)CC`, the TGI in experiment [1], in experiment [2], in experiment [3], in experiment [4], in experiment [5] and in experiment [6] was greater than 100 µM in each case. In addition, the TGI in experiment [7], in experiment [8] and in experiment [9] was greater than 100 µM each time.
Regarding `CN(C)C(=O)CO/N=C1/C(c2c(O)[nH]c3ccccc23)=Nc2ccccc21`, the TGI in [1], in experiment [2], in experiment [3], in experiment [4], in [5] and in experiment [6] was greater than 100 µM each time. The TGI in experiment [7], in experiment [8] and in [9] was greater than 100 µM in each case.
Regarding `CC1(C)CC(=O)C2=C(C1)N(c1ccccc1)C1(O)C=CC(=O)C3=C(O)c4ccccc4C(=O)C321` (stereo not given), the TGI was 86 µM in experiment [1]; greater than 100 µM in experiment [2]; greater than 100 µM in experiment [3]; 54 µM in experiment [4]; greater than 100 µM in experiment [5]; 52.1 µM in experiment [6]. Further, the TGI in [8] and in [9] was greater than 100 µM in each case.
For `OC1NC2CC3NC(O)C(O)NC3CC2NC1O` (stereo not given), the TGI in experiment [1], in experiment [2], in experiment [3], in experiment [4], in experiment [5] and in experiment [6] was greater than 100 µM throughout. In addition, the TGI in experiment [7], in experiment [8] and in experiment [9] was greater than 100 µM each time.
As to `CC(=O)O[C@@H]1CC2[C@@H](CCC3Cc4nc5c(nc4C[C@@]32C)CC2CC[C@@H]3C(CC[C@@]4(C)C3CC[C@@H]4C(C)CCCC(C)C)[C@@]2(C)C5)C2C[C@@H]3OC4(CCC(C)CO4)C(C)[C@@H]3[C@]21C` (stereo not given in full), the TGI in [2], in [3], in experiment [4], in experiment [5], in experiment [6] and in experiment [7] was greater than 100 µM throughout. For the same compound, the TGI in experiment [8] and in experiment [9] was greater than 100 µM in each case.
With `CC1(C)N=C(/C(C#N)=[N+](/[O-])C(=O)c2ccccc2)C(C)(C)N1O`, the TGI in [1], in experiment [2], in [3], in experiment [4], in [5] and in [6] was greater than 100 µM throughout. Besides, the TGI in [7], in experiment [8] and in [9] was greater than 100 µM in each case.
Regarding `CNc1nc(=O)c(C#N)c(-c2ccc(C)cc2)s1`, the TGI in experiment [1], in experiment [2], in [3], in experiment [4], in experiment [5] and in experiment [7] was greater than 100 µM in each case. In addition, the TGI in experiment [8] and in experiment [9] was greater than 100 µM in each case.
As to `COc1cc(OC)c(NC2=NCCO2)cc1Cl`, the TGI is 81.5 µM in experiment [10]; greater than 100 µM in experiment [2]; greater than 100 µM in experiment [3]; 38.4 µM in [4]; greater than 100 µM in [5]; greater than 100 µM in experiment [6]. The figures for the TGI in experiment [7], in experiment [8] and in experiment [9] were 47.3 µM, greater than 100 µM and greater than 100 µM, respectively.
